Patent publication US10421760B2, “Pyrrolo[2,3-d]pyrimidine compound or salt thereof” (TAIHO PHARMACEUTICAL CO., LTD., priority 2015, dated 2019)

What was measured:
human PBMC = assay: IL-2-dependent growth of human peripheral blood mononuclear cells (CellTiter-Glo); type: cell-based; conditions: 48 h, IL-2 2 ng/mL stimulation, 2 days
Experimental: The activity of the compound of the present invention to inhibit the IL-2-dependent growth reaction of human PBMC, which is caused by JAK3, was measured (Arthritis Rheum. 2010; 62(8): 2283-93).
Using a medium comprising 10 μg/mL PHA-M (Sigma) (which is RPMI-1640 (Sigma) comprising 10% human serum type AB (MP Biomedicals)), human PBMC (C.T.L.) (cell density: 1×10^6 cells/mL) was cultured at 37° C. in a culture vessel comprising 5% carbon dioxide for 3 days. Thereafter, the culture was washed with RPMI-1640 four times, and a medium (RPMI-1640 comprising 10% human serum type AB) was then added to the resultant culture to prepare a cell suspension. The cells (1×10^4 cells per well) and the serially diluted compound of the present invention were added to each well of a 96-well U-bottom microplate, and the thus obtained mixture was then cultured at 37° C. in a culture vessel comprising 5% carbon dioxide for 30 minutes. After completion of the culture, recombinant human IL-2 (Peprotech) was added to the culture to a final concentration of 2 ng/mL, and the obtained mixture was then stirred at 37° C. in a culture vessel comprising 5% carbon dioxide for 2 days (1×10^4 cells/100 μl/each well). After completion of the culture, the resultant was left at a room temperature for 30 minutes, and 100 μl of CellTiter-Glo Luminescent Cell Viability Assay (Promega) was then added to the resultant, followed by stirring it. Thereafter, the reaction mixture was left for 10 minutes, and the amount of a luminescence derived from living cells in each well was then measured using a microplate reader (TECAN). The inhibition rate of the present compound to the cell growth caused by IL-2 stimulation was calculated, and the concentration of the compound capable of inhibiting 50% of the cell growth was defined as an IC50 value (nM).

[1] = target: purified recombinant human JAK3 protein (Homo sapiens (Human), UniProt P52333); assay: JAK3 kinase-inhibiting activity (mobility shift, LabChip EZ Reader II); type: biochemical; conditions: ATP 5 μM, 25° C., 80 minutes
Chain of purified recombinant human JAK3 protein (P52333 whole entry): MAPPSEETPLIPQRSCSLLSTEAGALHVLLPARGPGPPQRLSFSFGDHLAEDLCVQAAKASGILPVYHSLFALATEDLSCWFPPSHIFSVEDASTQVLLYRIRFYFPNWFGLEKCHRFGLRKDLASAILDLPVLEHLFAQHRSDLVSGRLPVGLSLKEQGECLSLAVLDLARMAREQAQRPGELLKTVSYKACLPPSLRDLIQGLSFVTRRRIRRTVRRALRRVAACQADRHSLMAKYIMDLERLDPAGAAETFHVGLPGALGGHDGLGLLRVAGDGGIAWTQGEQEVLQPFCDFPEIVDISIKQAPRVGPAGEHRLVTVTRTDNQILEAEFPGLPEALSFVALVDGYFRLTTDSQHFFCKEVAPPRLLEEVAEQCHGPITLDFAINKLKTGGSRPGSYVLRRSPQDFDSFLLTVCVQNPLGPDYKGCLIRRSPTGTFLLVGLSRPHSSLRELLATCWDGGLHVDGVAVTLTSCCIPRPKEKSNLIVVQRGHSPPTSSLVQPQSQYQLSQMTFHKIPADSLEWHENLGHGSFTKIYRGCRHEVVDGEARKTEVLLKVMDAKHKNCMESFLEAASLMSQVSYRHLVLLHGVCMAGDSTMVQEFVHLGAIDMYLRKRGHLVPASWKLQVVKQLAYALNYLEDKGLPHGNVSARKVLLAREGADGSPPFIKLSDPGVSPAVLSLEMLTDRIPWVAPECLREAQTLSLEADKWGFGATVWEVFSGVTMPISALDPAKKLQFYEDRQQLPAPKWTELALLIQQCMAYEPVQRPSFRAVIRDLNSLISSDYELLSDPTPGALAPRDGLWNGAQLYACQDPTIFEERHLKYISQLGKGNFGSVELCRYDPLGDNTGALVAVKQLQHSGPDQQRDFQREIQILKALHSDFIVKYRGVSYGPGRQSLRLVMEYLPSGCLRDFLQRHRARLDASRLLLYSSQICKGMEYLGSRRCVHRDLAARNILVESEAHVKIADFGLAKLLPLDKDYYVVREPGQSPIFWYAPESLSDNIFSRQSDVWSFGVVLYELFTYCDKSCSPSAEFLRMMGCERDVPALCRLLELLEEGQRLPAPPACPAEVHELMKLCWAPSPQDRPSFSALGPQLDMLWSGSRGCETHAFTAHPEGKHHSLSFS
Experimental: 3) Measurement of JAK3 Kinase-Inhibiting Activity
The activity of the compound of the present invention to inhibit the activity of JAK3 kinase was measured.
(§1) Among materials for the measurement of this inhibiting activity, a substrate peptide and a kinase protein were acquired as follows. As such a substrate peptide, a substrate peptide for QSS Assist JAK3-MSA assay kit (Carna Biosciences, Inc.) was purchased. As such a kinase protein, a purified recombinant human JAK3 protein (Carna Biosciences, Inc.) was purchased.
The method for measuring the inhibiting activity is as follows. First, a serial dilution of the compound of the present invention was prepared by the same method as that described in the above section regarding JAK1. This serial dilution solution (the final concentration of DMSO upon a kinase reaction: 5.0%) or DMSO (final concentration: 5.0%) was mixed with a solution comprising the substrate peptide (final concentration: 1 μM), magnesium chloride (final concentration: 5 mM) and ATP (final concentration: 5 μM) in a buffer for kinase reaction (20 mM HEPES (pH 7.5), 2 mM dithiothreitol and 0.01% Triton X-100). Thereafter, a JAK3 protein was further added to the mixed solution, and the obtained mixture was then incubated at 25° C. for 80 minutes to carry out a kinase reaction. To the reaction solution, EDTA was added to a final concentration of 30 mM, so as to terminate the reaction. After termination of the reaction, the measurement and the data analysis were carried out by the same methods as those described in the above section regarding JAK1.

[2] = target: purified recombinant human JAK2 protein (Homo sapiens (Human), UniProt O60674); assay: JAK2 kinase-inhibiting activity (mobility shift, LabChip EZ Reader II); type: biochemical; conditions: ATP 10 μM, 25° C., 80 minutes
Chain of purified recombinant human JAK2 protein (O60674 whole entry): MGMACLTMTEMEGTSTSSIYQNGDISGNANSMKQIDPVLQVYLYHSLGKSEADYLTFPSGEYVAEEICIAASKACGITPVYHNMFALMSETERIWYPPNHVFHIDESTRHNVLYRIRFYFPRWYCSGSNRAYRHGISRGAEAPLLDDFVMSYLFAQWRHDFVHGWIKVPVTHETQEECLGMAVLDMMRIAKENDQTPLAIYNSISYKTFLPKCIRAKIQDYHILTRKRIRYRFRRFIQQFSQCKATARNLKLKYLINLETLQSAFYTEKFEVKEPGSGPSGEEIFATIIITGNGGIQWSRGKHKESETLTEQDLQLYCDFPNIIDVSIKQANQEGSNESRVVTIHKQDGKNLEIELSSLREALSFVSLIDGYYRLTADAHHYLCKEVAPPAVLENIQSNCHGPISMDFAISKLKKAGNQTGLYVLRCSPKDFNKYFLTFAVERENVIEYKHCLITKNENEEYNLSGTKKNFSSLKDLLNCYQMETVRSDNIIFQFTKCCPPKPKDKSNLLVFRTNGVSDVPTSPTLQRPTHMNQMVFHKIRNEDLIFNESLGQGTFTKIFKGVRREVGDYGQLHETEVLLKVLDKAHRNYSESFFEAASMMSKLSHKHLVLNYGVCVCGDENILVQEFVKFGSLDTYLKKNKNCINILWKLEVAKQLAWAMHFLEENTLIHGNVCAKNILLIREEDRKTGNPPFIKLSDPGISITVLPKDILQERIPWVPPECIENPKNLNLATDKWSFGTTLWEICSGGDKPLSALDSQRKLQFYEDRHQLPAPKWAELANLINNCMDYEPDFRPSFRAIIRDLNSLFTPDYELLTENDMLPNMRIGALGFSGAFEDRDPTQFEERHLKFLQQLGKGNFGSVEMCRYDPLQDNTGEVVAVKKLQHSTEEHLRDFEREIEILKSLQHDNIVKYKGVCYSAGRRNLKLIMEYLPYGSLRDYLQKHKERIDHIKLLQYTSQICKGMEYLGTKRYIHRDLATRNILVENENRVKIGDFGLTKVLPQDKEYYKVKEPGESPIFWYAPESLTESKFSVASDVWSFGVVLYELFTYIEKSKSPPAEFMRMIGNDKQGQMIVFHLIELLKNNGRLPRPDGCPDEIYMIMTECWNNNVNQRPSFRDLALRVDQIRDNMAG
Experimental: 2) Measurement of JAK2 Kinase-Inhibiting Activity
The activity of the compound of the present invention to inhibit the activity of JAK2 kinase was measured.
as §1, with “FL-Peptide 22 (Perkin Elmer Corp.)” for “a substrate peptide for QSS Assist JAK3-MSA assay kit (Carna Biosciences, Inc.)”, “JAK2” for “JAK3”
The method for measuring the inhibiting activity is as follows. First, a serial dilution of the compound of the present invention was prepared by the same method as that described in the above section regarding JAK1. This serial dilution solution (the final concentration of DMSO upon a kinase reaction: 5.0%) or DMSO (final concentration: 5.0%) was mixed with a solution comprising the substrate peptide (final concentration: 1 μM), magnesium chloride (final concentration: 10 mM) and ATP (final concentration: 10 μM) in a buffer for kinase reaction (15 mM Tris (pH 7.5), 2 mM dithiothreitol and 0.01% Tween 20). Thereafter, a JAK2 protein was further added to the mixed solution, and the obtained mixture was then incubated at 25° C. for 80 minutes to carry out a kinase reaction. To the reaction solution, EDTA was added to a final concentration of 30 mM, so as to terminate the reaction. After termination of the reaction, the measurement and the data analysis were carried out by the same methods as those described in the above section regarding JAK1.

[3] = target: purified recombinant human JAK1 protein (Homo sapiens (Human), UniProt P23458); assay: JAK1 kinase-inhibiting activity (mobility shift, LabChip EZ Reader II); type: biochemical; conditions: ATP 75 μM, 25° C., 120 minutes
Chain of purified recombinant human JAK1 protein (P23458 whole entry): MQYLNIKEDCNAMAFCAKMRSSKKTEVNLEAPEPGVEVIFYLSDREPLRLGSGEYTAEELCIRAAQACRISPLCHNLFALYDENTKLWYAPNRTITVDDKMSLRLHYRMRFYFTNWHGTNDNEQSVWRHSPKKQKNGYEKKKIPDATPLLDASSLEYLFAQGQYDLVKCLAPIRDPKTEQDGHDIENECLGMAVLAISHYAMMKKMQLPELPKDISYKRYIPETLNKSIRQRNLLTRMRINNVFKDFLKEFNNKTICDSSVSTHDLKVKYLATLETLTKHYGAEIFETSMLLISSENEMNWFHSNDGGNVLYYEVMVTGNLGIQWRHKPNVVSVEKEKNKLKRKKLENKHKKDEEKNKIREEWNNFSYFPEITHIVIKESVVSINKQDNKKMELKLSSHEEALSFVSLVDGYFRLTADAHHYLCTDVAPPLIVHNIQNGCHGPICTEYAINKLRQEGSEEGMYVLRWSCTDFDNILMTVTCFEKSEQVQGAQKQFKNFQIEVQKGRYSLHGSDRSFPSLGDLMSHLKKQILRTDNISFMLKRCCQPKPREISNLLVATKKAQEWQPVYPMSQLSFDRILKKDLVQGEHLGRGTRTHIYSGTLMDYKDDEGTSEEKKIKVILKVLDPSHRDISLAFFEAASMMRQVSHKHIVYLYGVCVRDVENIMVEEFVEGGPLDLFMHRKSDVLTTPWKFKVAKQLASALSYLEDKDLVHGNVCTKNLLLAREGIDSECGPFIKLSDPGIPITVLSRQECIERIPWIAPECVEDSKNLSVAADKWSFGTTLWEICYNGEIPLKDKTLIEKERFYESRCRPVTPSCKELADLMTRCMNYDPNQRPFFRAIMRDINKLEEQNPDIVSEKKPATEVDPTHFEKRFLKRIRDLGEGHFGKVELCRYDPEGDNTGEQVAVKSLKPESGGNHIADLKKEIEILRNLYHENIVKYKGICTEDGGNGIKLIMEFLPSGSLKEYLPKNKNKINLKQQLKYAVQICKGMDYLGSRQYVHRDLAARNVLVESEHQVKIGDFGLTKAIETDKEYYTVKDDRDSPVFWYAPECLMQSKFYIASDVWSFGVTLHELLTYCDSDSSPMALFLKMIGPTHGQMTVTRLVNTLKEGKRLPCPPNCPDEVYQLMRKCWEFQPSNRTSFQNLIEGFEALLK
Experimental: 1) Measurement of JAK1 Kinase-Inhibiting Activity
The activity of the compound of the present invention to inhibit the activity of JAK1 kinase was measured.
as §1, with “JAK1-MSA” for “JAK3-MSA”, “JAK1” for “JAK3”
The method for measuring the inhibiting activity is as follows. First, the compounds of the present invention were each dissolved in dimethyl sulfoxide (DMSO), and a serial dilution was then prepared using DMSO. Subsequently, a serial dilution solution of the compound (the final concentration of DMSO upon a kinase reaction: 5.0%) or DMSO (final concentration: 5.0%) was mixed with a solution comprising the substrate peptide (final concentration: 1 μM), magnesium chloride (final concentration: 5 mM) and ATP (final concentration: 75 μM) in a buffer for kinase reaction (20 mM HEPES (pH 7.5), 2 mM dithiothreitol and 0.01% Triton X-100). Thereafter, a JAK1 protein was further added to the mixed solution, and the obtained mixture was then incubated at 25° C. for 120 minutes to carry out a kinase reaction. To the reaction solution, EDTA was added to a final concentration of 30 mM, so as to terminate the reaction. Finally, using LabChip EZ Reader II (Perkin Elmer Corp.), an unphosphorylated substrate peptide (S) and a phosphorylated peptide (P) were subjected to microchannel capillary electrophoresis, so that the two peptides were separated from each other and were then detected. The amount of a phosphorylation reaction was obtained based on the heights of the peaks of S and P, and the concentration of the compound capable of inhibiting 50% of the phosphorylation reaction was defined as an IC50 value (nM).

[4] = system: IL-2-induced IFN-γ production; assay: Mouse IL-2-induced IFN-γ production test; type: in vivo; conditions: oral 1 mg/kg and 3 mg/kg, serum 3 hours after IL-2, BALB/c mice
Experimental: The inhibitory activity of the compound of the present invention and the compounds of comparative examples on mouse IL-2-induced IFN-γ production caused by JAK3 was measured (Arthritis Rheum. 2010; 62 (8): 2283-93, Inflammation Research 2015; 64 (1): 41-51).
Seven-week-old male BALB/c mice (Charles River Japan) were divided into five groups (6 mice per group), namely, a vehicle group, a Compound 7 (1 mpk) group, a Compound 7 (3 mpk) group, a Comparative Example 12 (1 mpk) group, and a Comparative Example 12 (3 mpk) group. Compound 7 and the compound of Comparative Example 12 were each administered to the 1 mpk group and the 3 mpk group via oral administration at doses of 1 mg/kg and 3 mg/kg, respectively. […] Three hours after administration of IL-2, blood was collected from all of the five groups, and the IFN-γ concentration in the serum was measured using BD In Vivo Capture Assay for Mouse IFN-γ (BD Biosciences). The relative amount of IFN-γ generated by IL-2 stimulation was calculated according to the following calculation formula: Relative amount of IFN-γ=(IFN-γ concentration of each group)×100/(IFN-γ concentration of vehicle group), and the results are shown in FIG. 1 (mean value±standard error: regarding vs Vehicle, Dunnett test, *: p<0.05, ***: p<0.001; regarding vs Comparative Example 12 (3 mpk), Student t-test, ##: p<0.01).

| SMILES | IC50 [1] | IC50 [2] | IC50 [3] | IC50 (human PBMC) | suppression of IFN-γ production in vivo [4] |
| --- | --- | --- | --- | --- | --- |
| C=CC(=O)N[C@H]1CCC[C@@H](c2ncnc3[nH]cc(-c4ccco4)c23)C1 [Comparative Example 11(a), N-((1S,3R)-3-(5-(Furan-2-yl)-7H-pyrrolo[2,3-d]pyrimidin-4-yl)cyclohexyl)acrylamide, reference compound] | 21 nM | 2440 nM | > 10000 nM | > 3000 nM |  |
| C=CC(=O)NC1CCC=C(c2ncnc3[nH]cc(-c4cccs4)c23)C1 (stereo not shown) [Compound 2, N-(3-(5-(Thiophen-2-yl)-7H-pyrrolo[2,3-d]pyrimidin-4-yl)cyclohex-3-en-1-yl)acrylamide] | < 0.3 nM | 480 nM | 900 nM | 110 nM |  |
| C=CC(=O)NC1C=C(c2ncnc3[nH]cc(-c4ccsc4)c23)CCC1 (stereo not shown) [Compound 14, N-(3-(5-(Thiophen-3-yl)-7H-pyrrolo[2,3-d]pyrimidin-4-yl)cyclohex-2-en-1-yl)acrylamide] | < 0.3 nM | 1200 nM | 5600 nM | 110 nM |  |

Now from value to molecule, other results behind:

| IC50 [1] | IC50 [2] | IC50 [3] | SMILES | IC50 (human PBMC) | suppression of IFN-γ production in vivo [4] |
| --- | --- | --- | --- | --- | --- |
| < 0.3 nM | 430 nM | 720 nM | C=CC(=O)NC1CCC=C(c2ncnc3[nH]cc(-c4ccco4)c23)C1 (stereo not shown) [Compound 5, N-(3-(5-(Furan-2-yl)-7H-pyrrolo[2,3-d]pyrimidin-4-yl)cyclohex-3-en-1-yl)acrylamide] | 38 nM |  |
| < 0.3 nM | 490 nM | 3200 nM | C=CC(=O)NC1C=C(c2ncnc3[nH]cc(-c4cccs4)c23)CCC1 (stereo not shown) [Compound 13, N-(3-(5-(Thiophen-2-yl)-7H-pyrrolo[2,3-d]pyrimidin-4-yl)cyclohex-2-en-1-yl)acrylamide] | 110 nM |  |
| 0.09 nM | > 1000 nM | > 1000 nM | C=CC(=O)Nc1cccc(-c2ncnc3[nH]cc(-c4ccccc4)c23)c1 [Comparative Example 12, N-(3-(5-Phenyl-7H-pyrrolo[2,3-d]pyrimidin-4-yl)phenyl)acrylamide, reference compound] | 546 nM | did not exhibit such a significant IFN-γ production-suppressing action |
